Earlier results as cited in US11759418B1, “Composition for treating wounds, dermatitis, inflammation, and irritation” (Chrism Products, Inc., priority 2016, dated 2023).
Read-outs that look alike come from different tables or passages of the source.

Legend:
[1] = system: wound healing process; conditions: results from histological analyses
[2] = chemically synthesized bulk allantoin
[3] = system: skin

Concentration (5% Glycerin in water, 20° C.)	Concentration (50% Isopropanol in water, 25° C.)	Concentration (Ethanol, 20° C.)	Concentration (Propylene glycol, 25° C.)	Concentration (Water, 20° C.)	Concentration (Water, 75° C.)	Compound	effect on wound healing process [1]	safety / toxicity [2]	concentration producing mild skin irritation ([3]; clinical studies, dermal use) [%]	concentration safe for dermal use ([3]; in vivo)
ca 0.8%	ca. 0.3%	ca. 0.1%	ca. 0.3%	ca. 0.4%	ca. 4.0%	NC(=O)NC1NC(=O)NC1=O (stereo not shown) [Allantoin, 5-ureidohydantoin]	benefits the wound healing process	safe, non-toxic		
						benzyl-dimethyl-tridecylazanium [Benzalkonium Chloride]			≥ 5	up to 0.5%
